{"source": "patent US20230132366A9", "about": "“METHODS FOR TREATING DYSREGULATED LIPID METABOLISM” (DENALI THERAPEUTICS INC., priority 2018, published 2023)", "key": {"[1]": {"target": "T1, TREM2 (Homo sapiens, UniProt Q9NZC2)", "T1 sequence (Q9NZC2 19-230)": "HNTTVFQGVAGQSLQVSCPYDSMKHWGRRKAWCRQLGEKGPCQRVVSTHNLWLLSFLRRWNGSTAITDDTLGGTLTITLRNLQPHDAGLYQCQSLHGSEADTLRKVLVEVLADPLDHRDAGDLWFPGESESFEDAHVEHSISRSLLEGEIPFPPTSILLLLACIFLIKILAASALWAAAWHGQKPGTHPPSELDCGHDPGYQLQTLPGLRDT", "T1 sequence (O43914 22-113 partner)": "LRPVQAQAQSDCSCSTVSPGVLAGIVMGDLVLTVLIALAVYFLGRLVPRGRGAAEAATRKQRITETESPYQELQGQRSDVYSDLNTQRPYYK", "test": "pSYK AlphaLISA in TREM2/DAP12-expressing stable HEK293 cells", "format": "cell-based", "parameters": "expressed in transfected cells", "settings": "for binding to and signaling via TREM2 (overall conclusion): conclusion from pSYK and SPR studies; for pSYK levels: liposomes 30% test lipid/70% PC, or oxLDL, vs DAP12-only cells and buffer control", "description": "(§1) 70 molar percent DOPC (1,2-dioleoyl-sn-glycero-3-phosphocholine, Avanti Polar Lipids) and 30 molar percent of one test lipid were combined in chloroform in a glass vial and dried under a stream of N2 gas for 1-2h, or until completely dry. Test lipids included sulfatide (Avanti), POPS (Avanti), SM (Avanti), PI (Avanti), GalCer (Avanti), PE (Echelon Biosciences), and free cholesterol (Echelon Biosciences). The lipid mixture was re-suspended in HBSS (1-2 mg/mL final lipid concentration) and vortexed for 2-3 min. Subsequently, the lipid suspension was bath sonicated for 10 minutes. For surface plasmon resonance experiments, liposomes were extruded 10 times using an Avanti mini-extruder constructed with one 100 nm pore size membrane to form small unilamellar vesicles.\nHEK293 cells were transfected with a pBudCE4.1 Mammalian Expression Vector (ThermoFisher) expressing wildtype human TREM2 and DAP12, and DAP12 alone. Stable expressing clones were selected and the cell surface TREM2 expression was evaluated by flow cytometry with APC-conjugated rat-anti-human/mouse-TREM2 monoclonal (R&D MAB17291). The highest wild type TREM2 expressing clone was selected for expansion. The clones stably expressing DAP12 were analyzed by Western blot.\n(§2) Activation of TREM2-dependent pSYK signaling was measured using a commercial AlphaLISA assay (PerkinElmer). HEK293 cells: Two days before the experiment, HEK293 cells stably overexpressing TREM2 and DAP12 were plated at 40,000 cells/well on 96 well poly-D-lysine-coated plate. Differentiated human macrophage and BMDM were plated at 100,000 cells/well on tissue-culture treated 96-well plates. Cells were washed once with HBSS, then 50 μL of liposome mixture was added per well. For competition experiments, hTREM2-ECD or TREM1-his (Novoprotein Scientific) was incubated with liposomes for 1 hour at room temperature before adding to cells. 5 μg/mL human-specific mouse anti-TREM2 (Abnova) or 15 μg/mL mouse-specific sheep anti-TREM2 (R&D Systems) was added to each experiment as a positive control with side-by-side isotype controls, 5 μg/mL mouse IgG3 (R&D Systems) and 15 μg/mL polyclonal sheep IgG (R&D Systems), respectively. The cell plate was then transferred to a 37° C. incubator for 5 minutes. The liposome solution was discarded and 40 uL lysis buffer (Cell Signaling Technologies, CST). Lysate was incubated at 4 C for 30 min, then either frozen at −80 C or immediately carried forward to the alpha-LISA assay. Lysates were assayed using the standard protocol for the PerkinElmer pSYK AlphaLISA kit. 10 μL of lysate/well was transferred to a white opaque 384 well Optiplate (PerkinElmer). 5 μL of Acceptor Mix (containing the working solution of acceptor beads) was added per well followed by sealing of plates with foil seals and incubation 1 hour at room temperature. 5 μL of Donor Mix (containing the working solution of donor beads) was added to each well under reduced light conditions. Plates were again sealed and incubated 1 hour at room temperature. Plates were read using AlphaLISA settings on a PerkinElmer EnVision plate reader."}, "[2]": {"test_system": "human iPSC-derived microglia (WT and TREM2 KO)", "test": "In vitro lipid storage assay, lipidomics by LC/MS, iPSC microglia treated with myelin", "format": "cell-based", "settings": "myelin 25 ug/mL 48 h, LXR agonist 10 uM; for cholesteryl ester (CE) accumulation: WT and TREM2 KO iPSC microglia", "description": "Lipid analyses were performed by liquid chromatography (Shimadzu Nexera X2 system, Shimadzu Scientific Instrument, Columbia, Md., USA) coupled to electrospray mass spectrometry (QTRAP 6500+, Sciex, Framingham, Mass., USA). For each analysis, 5 μL of sample was injected on a BEH C18 1.7 μm, 2.1×100 mm column (Waters Corporation, Milford, Mass., USA) using a flow rate of 0.25 mL/min at 55° C. For positive ionization mode, mobile phase A consisted of 60:40 acetonitrile/water (v/v) with 10 mM ammonium formate+0.1% formic acid; mobile phase B consisted of 90:10 isopropyl alcohol/acetonitrile (v/v) with 10 mM ammonium formate+0.1% formic acid. For negative ionization mode, mobile phase A consisted of 60:40 acetonitrile/water (v/v) with 10 mM ammonium acetate; mobile phase B consisted of 90:10 isopropyl alcohol/acetonitrile (v/v) with 10 mM ammonium acetate. The gradient was programmed as follows: 0.0-8.0 min from 45% B to 99% B, 8.0-9.0 min at 99% B, 9.0-9.1 min to 45% B, and 9.1-10.0 min at 45% B. Electrospray ionization was performed in either positive or negative ion mode applying the following settings: curtain gas at 30; collision gas was set at medium; ion spray voltage at 5500 (positive mode) or 4500 (negative mode); temperature at 250° C. (positive mode) or 600° C. (negative mode); ion source Gas 1 at 50; ion source Gas 2 at 60. Data acquisition was performed using Analyst 1.6.3 (Sciex) in multiple reaction monitoring mode (MRM), with the following parameters: dwell time (msec) and collision energy (CE) for each species reported in Table 2 (positive mode) or Table 3 (negative mode); declustering potential (DP) at 80; entrance potential (EP) at 10 (positive mode) or −10 (negative mode); and collision cell exit potential (CXP) at 12.5 (positive mode) or −12.5 (negative mode). Lipids were identified based on their retention times and MRM properties of commercially available reference standards (Avanti Polar Lipids, Birmingham, Ala., USA). Quantification was performed using MultiQuant 3.02 (Sciex). Metabolites were normalized to either total protein amount or cell number. […]"}, "[3]": {"target": "T2, hTREM2 R47H (Homo sapiens, UniProt Q9NZC2, R47H)", "T2 construct": "The ecto domain (residues 19-172) of TREM2 was sub cloned in the pRK vector; secretion signal from mouse Ig kappa chain V-III (amino acids 1-20) (N); made in house; host or cells: Expi293F cells (secreted, purified from the media by Ni-NTA and SEC)", "T2 sequence (Q9NZC2 19-172 R47H)": "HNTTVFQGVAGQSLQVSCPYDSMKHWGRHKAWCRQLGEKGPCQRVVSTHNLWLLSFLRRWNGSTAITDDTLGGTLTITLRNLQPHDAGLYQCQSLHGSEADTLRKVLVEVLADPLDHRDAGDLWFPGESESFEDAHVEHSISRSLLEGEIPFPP", "test": "Lipid binding analysis using surface plasmon resonance, hTREM2 R47H ECD", "settings": "for Response Units at the highest analyte concentration: 30% test lipid/70% PC liposomes; for Kd: 30% test lipid/70% PC liposomes on L1 chip, 25° C., steady-state; for faster off-rate of R47H variant vs hTREM2: SPR kinetic analysis", "description": "as §1\n(§3) The ecto domain (residues 19-172) of TREM2 was sub cloned in the pRK vector with the secretion signal from mouse Ig kappa chain V-III, amino acids 1-20 at the N-terminal region and a 6×-His tag at the C-terminal region. Expi293F™ cells were transfected using the Expi293™ M Expression System Kit according to the manufacturer's instructions and the media supernatant was harvested 96 hr post transfection. Harvested media was supplemented with 1M imidazole pH 8.0 to a final concentration 10 mM, filtered, and loaded on to HisPur™ Ni-NTA Resin equilibrated with load buffer (20 mM Tris pH 8.0, 150 mM NaCl and 10 mM Imidazole). Nonspecifically bound proteins were washed with load buffer supplemented with 50 and 100 mM imidazole and TREM2 ecto domain was eluted with 20 mM Tris pH 8.0, 150 mM NaCl and 200 mM Imidazole. Eluted protein was pooled and subjected to size exclusion chromatography onto a HiLoad Superdex 75 16/600 column using 1×PBS as the running buffer. Elute fractions were analyzed by SDS PAGE and further characterized by analytical size exclusion chromatography and the intact protein mass determination.\nThe binding analysis was performed using Series S Sensor chip L1 and Biacore T200 instrument (GE Healthcare) at 25° C. Before coating with lipids, the sensor surfaces were washed with 1 minute injection of 40 μM 3-[(3cholamidopropyl)dimethylammonio]-1-propanesulfonate (CHAPS) and 40 uM of 0-octylglucoside at a flow rate of 30 μl/min. Residual detergent on the sensor surfaces was washed away by 30 second injection of 30% ethanol. 1 mg/ml Sulfatide/DOPC or PS/DOPC small unilamellar vesicles were injected for 15 minutes at 5 μl/min over the second flow cell. First flow cell was coated with DOPC and served as a reference surface. Loosely bound vesicles were washed away with two short pulses (15 s) of 10 mM NaOH at 30 μl/min followed by injection of 0.1 mg/ml bovine serum albumin for 3 minutes to block poorly-coated surface. Recombinant hTREM2-ECD or hTREM2-R74H-ECD proteins were diluted in PBS (0, 0.19, 0.56, 1.7, 5, and 15 μM) and injected over both flow cells for 60 seconds at 30 μl/min, and dissociation was monitored for additional 2 minutes. Between each measurement the lipids surface was regenerated by injection of 10 mM NaOH. Steady-state affinities were obtained by fitting the response at equilibrium against the concentration using Biacore™ T200 Evaluation Software v3.1"}, "[4]": {"target": "T1, TREM2", "test": "pSYK AlphaLISA in human macrophages", "format": "cell-based", "parameters": "a system with endogenous expression of TREM2/DAP12; endogenous in cells; host or cells: macrophages differentiated from human peripheral blood monocytes (2-5 donors)", "settings": "for pSYK levels, titration: liposome or oxLDL titration", "description": "as §1\nas §2, with “Lysates were assayed using the standard protocol for the PerkinElmer pSYK AlphaLISA kit. 10 μL of lysate/well was transferred to a white opaque 384 well Optiplate (PerkinElmer). 5 μL of Acceptor Mix (containing the working solution of acceptor beads) was added per well followed by sealing of plates with foil seals and incubation 1 hour at room temperature. 5 μL of Donor Mix (containing the working solution of donor beads) was added to each well under reduced light conditions. Plates were again sealed and incubated 1 hour at room temperature.” left out, “reader. […]” for “reader.”"}, "[5]": {"target": "T3, hTREM2 (Homo sapiens, UniProt Q9NZC2)", "T3 construct": "The ecto domain (residues 19-172) of TREM2 was sub cloned in the pRK vector; secretion signal from mouse Ig kappa chain V-III (amino acids 1-20) (N); made in house; host or cells: Expi293F cells (secreted, purified from the media by Ni-NTA and SEC)", "T3 sequence (Q9NZC2 19-172)": "T2 sequence (Q9NZC2 19-172 R47H) with H29R", "test": "Lipid binding analysis using surface plasmon resonance, hTREM2 ECD", "settings": "for Response Units at the highest analyte concentration: 30% test lipid/70% PC liposomes", "description": "as §1\nas §3, with “Eluted protein was pooled and subjected to size exclusion chromatography onto a HiLoad Superdex 75 16/600 column using 1×PBS as the running buffer.” left out\nThe binding analysis was performed using Series S Sensor chip L1 and Biacore T200 instrument (GE Healthcare) at 25° C. […] Recombinant hTREM2-ECD or hTREM2-R74H-ECD proteins were diluted in PBS (0, 0.19, 0.56, 1.7, 5, and 15 μM) and injected over both flow cells for 60 seconds at 30 μl/min, and dissociation was monitored for additional 2 minutes. […]"}}, "note": "Numbering of substitutions follows the chain as printed. “Also recorded” adds a separate entry of the source."}
{"molecule": "sphingomyelin [SM]", "values": [{"measurement": "binding to and signaling via TREM2 (overall conclusion)", "setting": "[1]", "value": "did not appear to bind and signal via TREM2"}]}
{"molecule": "O=C(O)Cc1cccc(OCCCN(Cc2cccc(C(F)(F)F)c2Cl)CC(c2ccccc2)c2ccccc2)c1", "note": "[GW3965]", "values": [{"measurement": "cholesterol levels", "setting": "[2]; TREM2 KO iPSC microglia", "value": "not rescued"}, {"measurement": "cholesteryl ester (CE) accumulation", "setting": "[2]", "value": "rescued; also recorded: reduced"}, {"measurement": "cholesteryl ester (CE) accumulation", "setting": "[2]; listed as GW3695", "value": "rescued the accumulation of all CE species measured"}]}
{"molecule": "phosphatidylethanolamine [PE]", "values": [{"measurement": "binding to and signaling via TREM2 (overall conclusion)", "setting": "[1]", "value": "did not appear to bind and signal via TREM2"}]}
{"molecule": "sulfatide", "values": [{"measurement": "Response Units at the highest analyte concentration", "setting": "[3]", "value": 191, "unit": "RU"}, {"measurement": "Kd", "setting": "[3]", "value": 20, "unit": "µM"}, {"measurement": "faster off-rate of R47H variant vs hTREM2", "setting": "[3]", "value": 5, "unit": "fold"}, {"measurement": "pSYK increase with recombinant TREM2 ECD competition", "setting": "[4]; 3 μM recombinant TREM2-ECD", "value": "reduced to baseline levels"}, {"measurement": "pSYK levels, titration", "setting": "[4]", "value": "dose-dependent increases in pSYK levels"}, {"measurement": "Response Units at the highest analyte concentration", "setting": "[5]", "value": 704, "unit": "RU"}, {"measurement": "Kd", "setting": "[5]; 30% test lipid/70% PC liposomes on L1 chip, 25° C., steady-state", "value": 6.8, "unit": "µM"}, {"measurement": "binding to and signaling via TREM2 (overall conclusion)", "setting": "[1]", "value": "binds and signals via TREM2"}, {"measurement": "pSYK levels", "setting": "[1]", "value": "significantly increased pSYK levels"}]}
{"molecule": "phosphatidylserine [PS]", "values": [{"measurement": "Response Units at the highest analyte concentration", "setting": "[3]", "value": 267, "unit": "RU"}, {"measurement": "Kd", "setting": "[3]", "value": 14, "unit": "µM"}, {"measurement": "faster off-rate of R47H variant vs hTREM2", "setting": "[3]", "value": 2.4, "unit": "fold"}, {"measurement": "pSYK levels, titration", "setting": "[4]", "value": "dose-dependent increases in pSYK levels"}, {"measurement": "Response Units at the highest analyte concentration", "setting": "[5]", "value": 631, "unit": "RU"}]}
{"molecule": "phosphatidylinositol [PI]", "values": [{"measurement": "binding to and signaling via TREM2 (overall conclusion)", "setting": "[1]", "value": "did not appear to bind and signal via TREM2"}, {"measurement": "pSYK levels", "setting": "[1]", "value": "significantly increased pSYK levels"}]}
{"molecule": "galactosylceramide [GalCer]", "values": [{"measurement": "binding to and signaling via TREM2 (overall conclusion)", "setting": "[1]", "value": "did not appear to bind and signal via TREM2"}]}
